Reference: patent US6369096B1, “Benzyloxy prodigiosine compounds” (Pharmacia & Upjohn S.p.A., priority 1998, dated 2002)
Like-named read-outs stand apart in the source and are kept apart here.

Legend:
[1] = tested on: female C57 Bl/6 mice primed and challenged with sheep red blood cells (SRBC); test: DTH (Delayed-Type Hypersensitivity) assay; assay type: in vivo; settings: given daily for six days, dose reducing footpad thickness increase by 30% vs controls
Experimental: The immunosuppressive activity of the compounds of the invention was evaluated in vivo by DTH (Delayed-Type Hypersensitivity) assay. According to the test, sheep red blood cells (SRBC) (1×10^5 cells) suspended in 500 mcL saline, were injected i.v. into the tail vein of female C57 Bl/6 mice (8-9 week old). Five days later 1×10^8 SRBC suspended in 50 mcL saline were injected into the left hind footpad. The increase in footpad thickness was measured with a dial micrometer 24 h after challenge. The test compounds were given daily for six days at different doses starting on the day of priming. Activity was expressed as ED30 (dose able to reduce by 30% the thickness increase compared to controls).

[2] = In vivo bioavailability evaluation (pharmacokinetics and oral bioavailability); settings: 10 mg/kg, male Lewis rat, iv 1 mg salt/kg, oral 10 mg salt/kg, read-out: F % (bioavailability)
Experimental: Aim of the study is to determine the pharmacokinetics and the oral bioavailability of the instant prodigiosine compounds in rats.
Species/strain/sex: rat/Lewis/male
No. formulations: 1 oral; 1 intravenous
No. animals/formulation: 3+2 controls (+an ulterior rat treated with the iv formulation); total 9
Dosages: iv: 1 mg salt/kg; oral: 10 mg salt/kg
Vehicles: iv: a solution at the conc. of 5 mg/ml in PEG 400/Tween 80 (6:1 v:v) was prepared, then diluted with dextrose at the final concentration of 0.5 mg/ml; oral: a solution at the concentration of 5 mg/ml in Cremophor ELP/EtOH abs (6.5:3.5 v:v) was prepared, then diluted with saline at the final concentration of 1 mg/ml
Experimental: Three cannulated rats/formulation were treated. One rat/formulation was only treated with the vehicle, as basal sample. The intravenous administration was given into the caudal vein as bolus; the oral administration by gastric gavage as solution. […] Plasma was immediately obtained by centrifugation (10000 rpm for 3 min) and stored in labelled tubes at −30° C. till analysis.
Analytical assay: the extraction of the compounds was performed by protein precipitation by adding 100 mcl of acetonitrile to 25 mcl of plasma. The concentrations of the compounds (as free bases) in plasma were determined by LC-MS method. Column: APEX CN RP 5 mc, 10×4 mm (Jones chromatography); mobil phase: 70% acetonitrile/30% 1 mM ammonium formate +0.01% triethylamine adjusted to pH 2.0 with formic acid; flow rate: 1 ml/min; injection volume: 10 mcL; oven temperature: 45° C.; MS detection by APCI using MRM positive ion; MRM transition: 330 m/z>239 m/z, retention time: 1.4 min; LLOQ: 5.03 ng/ml; ULOQ: 10060 ng/ml. Bioavailability is expressed in following Table 1 as F %. ClogP is a lypophylic index, related to octanol/water partition coefficient.

[3] = tested on: Th murine cells D10-G4.1 (ATCC TIB 224); test: Inhibition of IL-2 proliferation induced activity (3H-TdR uptake); assay type: cell-based; settings: for 3HTdR uptake: mean cpm from triplicate wells, 48 h
Experimental: The Th murine cells D10-G4.1 (ATCC TIB 224) are IL-2 dependent for their growth. They are cultured in complete RPMI 1640 medium enriched with rhIL-2 (6 ng/ml) and ConA (6 ng/ml). For testing the inhibitory effects of the compounds of the invention on IL-2 activity, D 10 cells are washed twice with complete medium, resuspended at 10^5 cells/ml in the same medium and triplicately distributed (10^4 cells/well) in flat bottomed 96 well plates. […] and […] at different concentrations are simultaneously added to the cells. The cultures are then incubated at 37° C. in a humidified 5% CO2 incubator for 48 h, the last 18 h in the presence of 0.2 µCi of ^3H-TdR. Uptake of 3H-TdR in the cells (cpm) is taken as a measure of cell proliferation.

With CCCCCCCCCCCC1=NC(=Cc2[nH]c(-c3ccc[nH]3)cc2OCc2ccccc2)C=C1.Cl [PNU 156804, 4-benzyloxy-5-[(5-undecyl-2H-pyrrol-2-ylidene)methyl]-2,2′-bi-1H-pyrrole, hydrochloride, reference compound] as the molecule, how does the “DTH ED30 iv” value [1] read?
The value was 0.44 mg/kg.

And the “DTH ED30 os” value [1]?
The value was 18.7 mg/kg.

What about the bioavailability ([2]; in vivo) of the same molecule?
Its bioavailability is 7%.

For CC1=NC(=Cc2[nH]c(-c3ccc[nH]3)cc2OCc2ccccc2)C=C1.Cl [PNU 168727, 4-benzyloxy-5-[(5-methyl-2H-pyrrol-2-ylidene)methyl]-2,2′-bi-1H-pyrrole, hydrochloride], which “DTH ED30 iv” value [1] is on record?
Its value is 1.7 mg/kg.

What about the “DTH ED30 os” value [1] of the same molecule?
Its value is 5.3 mg/kg.

And the bioavailability ([2]; plasma)?
Its bioavailability is 35%.

And the “% inhibition vs vehicle” value ([3]; 1 ng/ml)?
The value was 5%.

What about the 3HTdR uptake ([3]; 1 ng/ml) of the same molecule?
The 3HTdR uptake was 58245 cpm.

And the “% inhibition vs vehicle” value ([3]; 3 ng/ml)?
The value was 11%.

And the 3HTdR uptake ([3]; 3 ng/ml)?
The 3HTdR uptake was 54594 cpm.

And the “% inhibition vs vehicle” value ([3]; 10 ng/ml)?
Its value is 87%.

What about the 3HTdR uptake ([3]; 10 ng/ml) of the same molecule?
Its 3HTdR uptake is 8100 cpm.

What about the “% inhibition vs vehicle” value ([3]; 30 ng/ml) of the same molecule?
The value was 100%.

What about the 3HTdR uptake ([3]; 30 ng/ml) of the same molecule?
Its 3HTdR uptake is 52 cpm.

What does the source list for CCCCCC1=NC(=Cc2[nH]c(-c3ccc[nH]3)cc2OCc2ccccc2)C=C1.Cl [PNU 169417, 4-benzyloxy-5-[(5-pentyl-2H-pyrrol-2-ylidene)methyl]-2,2′-bi-1H-pyrrole, hydrochloride]?
DTH ED30 iv [1]: 1.1 mg/kg; DTH ED30 os [1]: 4.4 mg/kg; bioavailability ([2]; plasma): 18%
